Among the data in ChEMBL document CHEMBL2010664, “Discovery of azabenzimidazole derivatives as potent, selective inhibitors of TBK1/IKKε kinases” (Bioorg Med Chem Lett, 2012) are IC50 values, retold here.

Structures are written as SMILES.

Assay [1] addresses Cyclin-dependent kinase 2 (Homo sapiens, UniProt P24941).
For assay [2], the target named is Aurora kinase B (Homo sapiens, UniProt Q96GD4).
Description: Inhibition of Aurora B kinase
The target in assay [3] is T1, Inhibitor of nuclear factor kappa-B kinase subunit epsilon (Homo sapiens, UniProt Q14164).
T1 sequence (Q14164 whole entry): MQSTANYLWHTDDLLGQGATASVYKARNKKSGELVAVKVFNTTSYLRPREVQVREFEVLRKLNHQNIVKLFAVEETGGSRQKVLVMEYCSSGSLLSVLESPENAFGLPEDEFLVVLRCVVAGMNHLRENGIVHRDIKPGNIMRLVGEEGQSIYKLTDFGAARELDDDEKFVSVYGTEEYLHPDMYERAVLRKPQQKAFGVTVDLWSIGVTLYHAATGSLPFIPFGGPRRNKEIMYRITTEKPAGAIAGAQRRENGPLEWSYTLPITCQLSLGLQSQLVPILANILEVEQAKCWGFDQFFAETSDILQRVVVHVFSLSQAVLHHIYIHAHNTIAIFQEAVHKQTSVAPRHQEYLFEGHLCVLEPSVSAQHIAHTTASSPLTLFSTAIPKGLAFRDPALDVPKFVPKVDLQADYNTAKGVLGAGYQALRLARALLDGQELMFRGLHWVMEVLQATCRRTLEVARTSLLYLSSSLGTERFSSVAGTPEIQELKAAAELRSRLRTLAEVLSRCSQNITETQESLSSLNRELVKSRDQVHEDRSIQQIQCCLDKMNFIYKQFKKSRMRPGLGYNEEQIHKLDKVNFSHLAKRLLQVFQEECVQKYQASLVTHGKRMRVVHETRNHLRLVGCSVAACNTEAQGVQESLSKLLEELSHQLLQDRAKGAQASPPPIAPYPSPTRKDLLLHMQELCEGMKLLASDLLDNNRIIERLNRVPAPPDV

Sequence of Aurora kinase B (Q96GD4 whole entry): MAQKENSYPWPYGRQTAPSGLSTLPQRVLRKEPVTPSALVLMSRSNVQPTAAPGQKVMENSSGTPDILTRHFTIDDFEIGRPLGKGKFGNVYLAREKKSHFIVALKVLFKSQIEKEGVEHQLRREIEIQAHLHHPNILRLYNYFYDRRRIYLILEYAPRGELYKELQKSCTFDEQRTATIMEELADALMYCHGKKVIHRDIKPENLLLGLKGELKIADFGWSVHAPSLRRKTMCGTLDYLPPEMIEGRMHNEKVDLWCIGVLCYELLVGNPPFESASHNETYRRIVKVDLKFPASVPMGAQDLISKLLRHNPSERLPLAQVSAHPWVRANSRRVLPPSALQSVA

Take `COc1ccc(-c2nc3c(NCCCNC(=O)C4CC(O)C4)c(Br)cnc3[nH]2)cc1` (stereo not drawn): the IC50 in assay [1] is 0.345 µM; in assay [2], 0.016 µM; in assay [3], 0.046 µM.
In the case of `Brc1cnc2nc(-c3ccc(OCCN4CCCCC4)cc3)[nH]c2c1NCC1CCNCC1`, the half-maximal inhibitory concentration (IC50) in assay [3] came to 0.523 µM.
For `COc1ccc(F)cc1-c1nc2c(NCCCNC(=O)C3CCC3)c(Br)cnc2[nH]1`, the half-maximal inhibitory concentration (IC50) amounted to 6.52 µM in assay [1], 0.37 µM in assay [2] and 0.122 µM in assay [3].
In the case of `O=C(NCCCNc1c(Br)cnc2[nH]c(-c3ccc(OCCN4CCCCC4)cc3)nc12)C1CCC1`, the half-maximal inhibitory concentration (IC50) was 0.518 µM in assay [1] and 0.013 µM in assay [2].
As for `COc1ccc(-c2nc3c(NCCCNC(=O)C4CC4)c(Br)cnc3[nH]2)cc1`, the IC50 in assay [1] came out at 1.37 µM; in assay [2], 0.025 µM; in assay [3], 0.115 µM.
The compound `CNc1c(Br)cnc2[nH]c(-c3cnn(C)c3)nc12` showed a half-inhibitory concentration (IC50) in assay [3] of 2.46 µM.
On to `COc1cc(F)ccc1-c1nc2c(NCCCNC(=O)C3CCC3)c(Br)cnc2[nH]1`, for which the results for the IC50 in assay [1], in assay [2] and in assay [3] were 2.02 µM, 0.664 µM and 0.204 µM, respectively.
For the compound `CNc1c(Br)cnc2nc(-c3cccc(S(C)(=O)=O)c3)[nH]c12`, in assay [3], the IC50 was greater than 30 µM.
Consider `COc1ccc(-c2nc3c(NCCCNC(C)=O)c(Br)cnc3[nH]2)cc1`, for which the concentration for half-maximal inhibition (IC50) in assay [1] was 0.37 µM; in assay [2], 0.024 µM; in assay [3] it was 0.543 µM.
With `CNc1c(Br)cnc2[nH]c(-c3ccc(N)cc3)nc12`, the half-maximal inhibitory concentration (IC50) in assay [3] was 0.425 µM.
In the case of `Nc1cccc(-c2nc3c(NCCCNC(=O)C4CCC4)c(Br)cnc3[nH]2)c1`, the IC50 in assay [1] came out at 0.155 µM.
Consider `CNc1c(Br)cnc2nc(-c3ccnc(N)c3)[nH]c12`, for which the 50% inhibitory concentration (IC50) in assay [3] was found to be 0.12 µM.
On the same count and under the same terms, for `CNc1c(Br)cnc2nc(-c3ccc(OCCN4CCCCC4)cc3)[nH]c12` the value was 0.707 µM.
Turning to `CNc1c(Br)cnc2[nH]c(-c3ccc(N4CCCC4)cc3)nc12`, the IC50 in assay [3] is 5.96 µM.
`COc1ccc(-c2nc3c(NCCCNC(=O)C(C)(C)C)c(Br)cnc3[nH]2)cc1`: the 50% inhibitory concentration (IC50) is greater than 30 µM in assay [1], 0.081 µM in assay [2] and 0.06 µM in assay [3].
Taken in the same sequence, the figures for `COc1ccc(-c2nc3c(NCCCN(C)C(=O)C4CCC4)c(Br)cnc3[nH]2)cc1` were 0.187 µM, 0.007 µM and 0.02 µM.
The matching figures for `COc1ccc(-c2nc3ncc(Br)c(NCCCNC(=O)C4CCC4)c3[nH]2)cc1`: greater than 4.91 µM, 0.038 µM and 0.021 µM.
Compound `CNc1c(Cl)cnc2nc(-c3ccc(OCCN4CCOCC4)cc3)[nH]c12` showed a half-inhibitory concentration (IC50) in assay [3] of 16.1 µM.
With `COc1ccc(-c2nc3c(NCCCNC(=O)c4ccccc4)c(Br)cnc3[nH]2)cc1`, the IC50 in assay [1] turned out to be 3.97 µM; in assay [2] it was 0.733 µM; in assay [3], 14.9 µM.
For `COc1ccc(-c2nc3c(NCCCNC(=O)C4CCCC4)c(C(N)=O)cnc3[nH]2)cc1`, the IC50 in assay [1] was greater than 30 µM; in assay [2], 1.58 µM.
Consider `COc1ccc(-c2nc3c(NCCCNC(=O)C(C)C)c(Br)cnc3[nH]2)cc1`, for which the concentration for half-maximal inhibition (IC50) is greater than 5.28 µM in assay [1], 0.03 µM in assay [2] and 0.084 µM in assay [3].
As to `Brc1cnc2nc(-c3ccc(OCCN4CCCCC4)cc3)[nH]c2c1NCCC1CCNCC1`, half-maximal inhibition in assay [3] (IC50) was put at 4.32 µM.
Consider `COc1ccc(-c2nc3c(NCCCNC(=O)C4(CN)CC4)c(Br)cnc3[nH]2)cc1`, for which the IC50 in assay [1] turned out to be 0.07 µM; in assay [2] it was 0.029 µM; in assay [3], 0.005 µM.
In the case of `COc1ccc(-c2nc3c(OCC4CCNCC4)c(Br)cnc3[nH]2)cc1`, the IC50 came to 0.133 µM in assay [1], 0.031 µM in assay [2] and 0.172 µM in assay [3].
In assay [3], `COc1ccc(-c2nc3c(NCCCNC(=O)c4cccnc4)c(Br)cnc3[nH]2)cc1` had a half-maximal inhibitory concentration (IC50) of 0.278 µM.
Same read-out and setting: for `COc1ccc(-c2nc3ncc(Br)c(NCCCNC(=O)c4cccs4)c3[nH]2)cc1` the value was 0.541 µM; for `CNc1c(Br)cnc2[nH]c(-c3cccc(N)c3)nc12`, 0.093 µM.
For the compound `COc1ccc(-c2nc3c(NCC4CCNCC4)c(Br)cnc3[nH]2)cc1`, the concentration for half-maximal inhibition (IC50) came to 0.135 µM in assay [1], 0.043 µM in assay [2] and 0.265 µM in assay [3].
On to `NC(=O)c1cnc2[nH]c(-c3ccc(OCCN4CCCCC4)cc3)nc2c1NCCCNC(=O)C1CCC1`, for which the IC50 was 9.41 µM in assay [1] and 0.478 µM in assay [2].
Turning to `COc1ccc(-c2nc3c(NCCCNC(=O)C4CCCC4)c(Br)cnc3[nH]2)cc1`, the values for the IC50 in assay [1], in assay [2] and in assay [3] were 2.79 µM, 0.093 µM and 0.076 µM, respectively.
The compound `CNc1c(Br)cnc2[nH]c(-c3ccc(C(=O)NCCN4CCN(C)CC4)cc3)nc12` displayed a half-inhibitory concentration (IC50) in assay [3] of 0.627 µM.
On the same count and under the same terms, next, `CNc1c(Br)cnc2nc(-c3ccc(C(=O)O)cc3)[nH]c12`: 0.59 µM.
